Measured values from patent publication US20140088085A1, “Substituted Benzoazepines As Toll-Like Receptor Modulators” (ARRAY BIOPHARMA, INC, priority 2011, published 2014).
Like-named read-outs stand apart in the source and are kept apart here.

Legend:
hTLR8 = molecular target: T1, hTLR8 (Homo sapiens, UniProt Q9NR97); assay: HEK-293 hTLR8 transfectant NF-κB SEAP reporter antagonist assay; type: cell-based
T1 construct: host or cells: HEK293 cells stably transfected with hTLR8
T1 sequence (Q9NR97 27-1041): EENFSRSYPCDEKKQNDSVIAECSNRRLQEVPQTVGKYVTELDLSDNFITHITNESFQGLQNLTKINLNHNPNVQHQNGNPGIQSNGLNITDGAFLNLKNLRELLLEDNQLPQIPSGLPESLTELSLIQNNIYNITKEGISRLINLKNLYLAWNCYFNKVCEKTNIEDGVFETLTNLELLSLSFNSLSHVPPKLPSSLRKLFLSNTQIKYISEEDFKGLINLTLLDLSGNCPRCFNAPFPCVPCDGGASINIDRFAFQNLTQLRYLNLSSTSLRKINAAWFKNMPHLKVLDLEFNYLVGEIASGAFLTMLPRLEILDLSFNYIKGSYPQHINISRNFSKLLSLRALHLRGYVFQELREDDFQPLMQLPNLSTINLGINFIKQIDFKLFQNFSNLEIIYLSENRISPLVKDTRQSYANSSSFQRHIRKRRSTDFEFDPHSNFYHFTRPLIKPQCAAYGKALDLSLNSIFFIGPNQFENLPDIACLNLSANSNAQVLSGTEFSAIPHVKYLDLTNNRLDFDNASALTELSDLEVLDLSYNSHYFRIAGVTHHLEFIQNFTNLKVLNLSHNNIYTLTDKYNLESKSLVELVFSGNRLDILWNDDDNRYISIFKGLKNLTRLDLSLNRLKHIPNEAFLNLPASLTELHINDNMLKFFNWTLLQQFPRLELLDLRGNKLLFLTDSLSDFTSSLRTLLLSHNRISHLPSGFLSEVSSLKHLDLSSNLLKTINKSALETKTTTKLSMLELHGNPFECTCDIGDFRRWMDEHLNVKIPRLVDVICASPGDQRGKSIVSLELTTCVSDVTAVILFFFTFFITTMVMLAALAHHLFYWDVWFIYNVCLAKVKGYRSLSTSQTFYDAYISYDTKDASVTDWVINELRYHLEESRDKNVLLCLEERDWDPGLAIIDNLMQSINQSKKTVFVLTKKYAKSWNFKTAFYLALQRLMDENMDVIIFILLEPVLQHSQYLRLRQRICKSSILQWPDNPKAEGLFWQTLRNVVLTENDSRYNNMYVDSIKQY
Procedure: The HEK-293 hTLR transfectant assay employs HEK293 cells stably transfected with various hTLRs and transiently co-transfected with a plasmid containing an NF-κB driven secreted embryonic alkaline phosphate (SEAP) reporter gene. Stimulation of TLRs activates their downstream signaling pathways and induces nuclear translocation of the transcription factor NF-κB. Reporter gene activity is then measured using a spectrophotometric assay.
For the TLR8 antagonist assays, cells are transiently transfected with the reporter gene on Day 1 per the supplier's instructions. Antagonist compounds are added to the cultures on Day 2 followed by addition of a TLR8 agonist approximately 2 hours later. Cultures are incubated overnight and SEAP activity is measured on Day 3.
In a typical assay, 50,000 HEK239 hTLR8 cells are seeded per culture well and transiently transfected with the SEAP reporter gene. Antagonists are added to cultures in culture medium and […] DMSO over a concentration range of 0.1 nanomolar to 10 micromolar. TLR8 agonists are added to cultures 2 hours later at a fixed concentration (e.g., 1 micromolar or 10 micromolar of Compound A) and cultures are then incubated for 16-24 hrs at 37° C. in a humidified CO incubator. Antagonists are also evaluated for activity in the absence of agonist.
TLR8 antagonist activity at 25 μM is presented in Table 2, where + denotes a % inhibition of 20-39, ++ denotes a % inhibition of 40-59, +++ denotes a % inhibition of 60-79 and ++++ denotes a % inhibition of 80-99. In some cases, antagonist activity was assessed at lower concentrations, for example, at 8.3, 2.8, or less than 1 μM.
TLR8 antagonist activity was measured in a hTLR8 assay format, measuring IC50 values. Compounds were incubated with hTLR8 reporter cells for two hours, then 1 μM Compound A was added to induce TLR8 overnight. IC50 were then calculated.

[1] = test system: human peripheral blood mononuclear cells (PBMCs); assay: Human PBMC assay: IL-8 production stimulated with CL075 (ELISA); type: cell-based; conditions: 3 to 1000 nM antagonist 2 h, then CL075 100 ng/mL (400 nM) overnight, FIG. 1, one donor
Procedure: PBMCs contain a mixture of cells including monocytes and myeloid dendritic cells (mDCs) that express TLR8. […] The ability of TLR8 antagonists to inhibit […] production in human PBMCs was evaluated. […] Data shown in FIG. 1 are a representative experiment from one donor evaluated in duplicate culture wells. Increasing concentrations (from 3 to 1000 nM) of Compounds 3348, 2987, 3261, 3387, and 3448 (labeled as VTX-3348, VTX-2987, VTX-3261, VTX-3387, VTX-3448 in FIG. 1) were added to human PBMCs (50,000 cells/well in RPMI) and incubated for 2 hours in a 37° C. humidified CO2 incubator. […] At the end of the incubation, cells were centrifuged and cell culture supernatants were analyzed for IL-8 by ELISA (eBiosciene kit) per the manufacturer's instructions. The absorbance (OD 450 nm) representative of IL-8 levels is shown on the y-axis of FIG. 1.
The experiment shown in FIG. 1 was repeated in multiple donors and with additional TLR8 antagonist molecules (see FIG. 2). […] Percent inhibition is shown on the y-axis and concentrations of TLR8 antagonists (3-1000 nM) are shown on the x-axis in FIG. 2.

[2] = IC50, nM, vs. VTX-378 1 μM, agonist VTX-378 at 1 μM

CCCN(CCC)C(=O)C1=Cc2cc(-c3ccc(C(=O)N4CCCC4)cc3)ccc2N=C(N)C1 [Compound 2987]
IC50 (hTLR8; [2]): < 1000 nM | IC50 (hTLR8; IC50, nM, vs. VTX-378 10 μM, agonist VTX-378 at 10 μM): 1000 to 10000 nM | inhibition of IL-8 production [1]: reduced in a dose dependent fashion

CCOC(=O)C1=Cc2cc(-c3ccc(C(=O)N4CCCC4)cc3)ccc2N=C(N)C1(C)C [Compound 3348]
IC50 (hTLR8; IC50, nM, vs. 3M002 10 μM, agonist 3M002 at 10 μM): < 1000 nM | IC50 (hTLR8; [2]): < 1000 nM | IC50 (hTLR8; agonist VTX-378 at 0.5 μM, read-out: IC50, nM, vs. VTX-378 0.5 μM): < 1000 nM | inhibition of IL-8 production [1]: reduced in a dose dependent fashion
